{
  "source": "paper PMC4929936",
  "about": "“Isoform-specific modulation of the chemical sensitivity of conserved TRPA1 channel in the major honeybee ectoparasitic mite, Tropilaelaps mercedesae” (Open Biology, 2016)",
  "key": {"TmTRPA1b": {"target": "T1, TmTRPA1b (Tropilaelaps mercedesae, UniProt A0A193PK79)", "T1 construct": "gene TRPA1; full-length, untagged, transiently expressed in HEK293 cells; expected 143 kD; 15 ankyrin repeats", "T1 sequence (A0A193PK79 1-1258)": "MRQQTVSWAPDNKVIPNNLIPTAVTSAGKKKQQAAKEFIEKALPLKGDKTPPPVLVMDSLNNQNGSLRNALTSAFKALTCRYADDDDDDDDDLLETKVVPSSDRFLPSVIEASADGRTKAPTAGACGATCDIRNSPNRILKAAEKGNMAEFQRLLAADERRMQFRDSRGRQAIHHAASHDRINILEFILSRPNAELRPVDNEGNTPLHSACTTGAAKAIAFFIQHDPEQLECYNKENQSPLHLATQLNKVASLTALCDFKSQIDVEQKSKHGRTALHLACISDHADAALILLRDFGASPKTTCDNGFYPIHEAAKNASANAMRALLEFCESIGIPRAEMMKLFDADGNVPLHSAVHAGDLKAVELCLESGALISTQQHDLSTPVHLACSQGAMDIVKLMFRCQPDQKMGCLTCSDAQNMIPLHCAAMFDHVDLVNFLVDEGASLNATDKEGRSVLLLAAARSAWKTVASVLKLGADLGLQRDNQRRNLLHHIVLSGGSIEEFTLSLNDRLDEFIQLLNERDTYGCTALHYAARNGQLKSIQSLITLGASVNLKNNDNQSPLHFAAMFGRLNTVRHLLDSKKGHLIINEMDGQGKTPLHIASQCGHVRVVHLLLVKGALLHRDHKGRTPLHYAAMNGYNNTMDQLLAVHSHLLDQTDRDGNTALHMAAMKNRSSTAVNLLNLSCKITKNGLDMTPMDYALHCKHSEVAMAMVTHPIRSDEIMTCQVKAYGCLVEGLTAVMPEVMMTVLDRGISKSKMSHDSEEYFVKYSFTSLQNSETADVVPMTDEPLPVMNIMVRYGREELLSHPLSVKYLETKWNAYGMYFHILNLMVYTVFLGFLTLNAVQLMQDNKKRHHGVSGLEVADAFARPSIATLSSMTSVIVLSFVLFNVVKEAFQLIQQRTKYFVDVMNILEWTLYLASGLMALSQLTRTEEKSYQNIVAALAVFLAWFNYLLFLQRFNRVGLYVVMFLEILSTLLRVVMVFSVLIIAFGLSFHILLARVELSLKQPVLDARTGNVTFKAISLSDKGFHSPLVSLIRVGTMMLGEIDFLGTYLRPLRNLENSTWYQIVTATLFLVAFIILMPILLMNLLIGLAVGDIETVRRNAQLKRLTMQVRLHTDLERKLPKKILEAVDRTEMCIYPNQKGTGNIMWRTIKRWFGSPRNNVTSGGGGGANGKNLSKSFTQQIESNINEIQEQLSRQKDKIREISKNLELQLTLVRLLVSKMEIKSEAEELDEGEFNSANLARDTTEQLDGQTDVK", "assay": "Fura-2 calcium imaging, HEK293", "assay_type": "cell-based", "details": "pH 7.4, 2 mM CaCl2"}, "TmTRPA1a": {"target": "T2, TmTRPA1a (Tropilaelaps mercedesae, UniProt A0A193PK31)", "T2 construct": "gene TRPA1; full-length, untagged, transiently expressed in HEK293 cells; expected 134 kD; 15 ankyrin repeats", "T2 sequence (A0A193PK31 1-1172)": "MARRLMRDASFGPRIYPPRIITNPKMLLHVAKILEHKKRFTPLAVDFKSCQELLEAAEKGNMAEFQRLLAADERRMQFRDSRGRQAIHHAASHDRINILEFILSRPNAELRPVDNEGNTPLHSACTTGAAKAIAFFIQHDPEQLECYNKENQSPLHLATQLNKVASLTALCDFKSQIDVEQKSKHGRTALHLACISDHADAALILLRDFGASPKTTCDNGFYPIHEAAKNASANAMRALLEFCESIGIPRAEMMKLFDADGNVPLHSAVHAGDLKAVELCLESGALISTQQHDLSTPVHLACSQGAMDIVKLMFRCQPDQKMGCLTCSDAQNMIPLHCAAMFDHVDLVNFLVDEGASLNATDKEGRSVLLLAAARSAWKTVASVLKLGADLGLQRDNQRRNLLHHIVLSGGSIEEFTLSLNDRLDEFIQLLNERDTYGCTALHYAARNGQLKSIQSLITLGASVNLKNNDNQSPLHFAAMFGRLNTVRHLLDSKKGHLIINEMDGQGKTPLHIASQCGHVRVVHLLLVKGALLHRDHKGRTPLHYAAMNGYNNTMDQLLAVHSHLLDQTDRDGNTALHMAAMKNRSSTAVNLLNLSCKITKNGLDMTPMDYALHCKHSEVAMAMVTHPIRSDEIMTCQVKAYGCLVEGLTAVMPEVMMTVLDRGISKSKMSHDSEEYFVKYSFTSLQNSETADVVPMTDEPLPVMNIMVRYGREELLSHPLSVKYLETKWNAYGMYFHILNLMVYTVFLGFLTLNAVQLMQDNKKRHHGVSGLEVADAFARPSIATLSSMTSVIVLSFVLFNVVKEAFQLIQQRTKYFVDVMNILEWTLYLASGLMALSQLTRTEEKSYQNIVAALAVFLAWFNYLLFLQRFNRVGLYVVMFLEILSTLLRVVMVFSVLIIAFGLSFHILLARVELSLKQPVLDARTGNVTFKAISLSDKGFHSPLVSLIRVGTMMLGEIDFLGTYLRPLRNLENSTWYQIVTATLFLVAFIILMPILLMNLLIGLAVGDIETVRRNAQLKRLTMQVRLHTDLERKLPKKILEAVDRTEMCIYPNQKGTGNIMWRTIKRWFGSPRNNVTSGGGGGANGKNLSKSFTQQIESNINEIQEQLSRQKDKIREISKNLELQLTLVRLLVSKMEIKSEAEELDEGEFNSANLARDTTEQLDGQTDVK", "assay": "Fura-2 calcium imaging, HEK293", "assay_type": "cell-based", "details": "activator, pH 7.4, 2 mM CaCl2", "excerpt": "Fura-2 calcium imaging, HEK293 on TmTRPA1a | only six of the compounds activated TmTRPA1a."}},
  "data": [
    {"smiles": "CC12CCC(CC1)C(C)(C)O2", "note": "[1,8-cineole]", "values": [
      {"measurement": "Fura-2 calcium imaging, HEK293", "setting": "TmTRPA1b; 1 mM, activator", "result": "We observed robust activation of TmTRPA1b by eight representative plant-derived compounds"}
    ]},
    {"smiles": "CCCCCCCCCC(C)=O", "note": "[2-undecanone]", "values": [
      {"measurement": "Fura-2 calcium imaging, HEK293", "setting": "TmTRPA1b; 1 mM, activator", "result": "We observed robust activation of TmTRPA1b by eight representative plant-derived compounds"},
      {"measurement": "Fura-2 calcium imaging, HEK293", "setting": "TmTRPA1a; 1 mM", "result": "only six of the compounds activated TmTRPA1a. These are nerol, 2-undecanone, carvacrol"}
    ]},
    {"smiles": "C=CCN=C=S", "note": "[allyl isothiocyanate]", "values": [
      {"measurement": "Fura-2 calcium imaging, HEK293", "setting": "TmTRPA1b; 1 mM, electrophilic activator", "result": "allyl isothiocyanate (AITC), cinnamaldehyde (CA) and diallyl disulfide also activate TmTRPA1b"}
    ]},
    {"smiles": "Cc1ccc(C(C)C)cc1O", "note": "[carvacrol]", "values": [
      {"measurement": "Fura-2 calcium imaging, HEK293", "setting": "TmTRPA1b; 0.5 mM, activator", "result": "We observed robust activation of TmTRPA1b by eight representative plant-derived compounds"},
      {"measurement": "Fura-2 calcium imaging, HEK293", "setting": "TmTRPA1a; 0.5 mM", "result": "only six of the compounds activated TmTRPA1a. These are nerol, 2-undecanone, carvacrol"}
    ]},
    {"smiles": "O=CC=Cc1ccccc1", "note": "[cinnamaldehyde]", "values": [
      {"measurement": "Fura-2 calcium imaging, HEK293", "setting": "TmTRPA1b; 1 mM, electrophilic activator", "result": "allyl isothiocyanate (AITC), cinnamaldehyde (CA) and diallyl disulfide also activate TmTRPA1b"}
    ]},
    {"smiles": "C=CCSSCC=C", "note": "[diallyl disulfide]", "values": [
      {"measurement": "Fura-2 calcium imaging, HEK293", "setting": "TmTRPA1b; 1 mM, electrophilic activator", "result": "allyl isothiocyanate (AITC), cinnamaldehyde (CA) and diallyl disulfide also activate TmTRPA1b"}
    ]},
    {"smiles": "C=CCc1ccc(O)c(OC)c1", "note": "[eugenol]", "values": [
      {"measurement": "Fura-2 calcium imaging, HEK293", "setting": "TmTRPA1a; 1 mM", "result": "These are nerol, 2-undecanone, carvacrol, geranylacetone, eugenol and terpinen-4-ol"}
    ]},
    {"smiles": "CC(=O)CC/C=C(\\C)CCC=C(C)C", "note": "[geranylacetone]", "values": [
      {"measurement": "Fura-2 calcium imaging, HEK293", "setting": "TmTRPA1b; 0.5 mM, activator", "result": "We observed robust activation of TmTRPA1b by eight representative plant-derived compounds"},
      {"measurement": "Fura-2 calcium imaging, HEK293", "setting": "TmTRPA1a; 0.5 mM", "result": "These are nerol, 2-undecanone, carvacrol, geranylacetone, eugenol and terpinen-4-ol"}
    ]},
    {"smiles": "CC/C=C\\C[C@H]1C(=O)CC[C@@H]1CC(=O)OC", "note": "[methyl jasmonate]", "values": [
      {"measurement": "Fura-2 calcium imaging, HEK293", "setting": "TmTRPA1b; 1 mM, activator", "result": "We observed robust activation of TmTRPA1b by eight representative plant-derived compounds"}
    ]},
    {"smiles": "CC(C)=CCC/C(C)=C\\CO", "note": "[nerol]", "values": [
      {"measurement": "Fura-2 calcium imaging, HEK293", "setting": "TmTRPA1b; 0.5 mM, activator", "result": "We observed robust activation of TmTRPA1b by eight representative plant-derived compounds"},
      {"measurement": "Fura-2 calcium imaging, HEK293", "setting": "TmTRPA1a; 1 mM (Figure 5 legend; Methods state 0.5 mM)", "result": "only six of the compounds activated TmTRPA1a. These are nerol, 2-undecanone, carvacrol"}
    ]},
    {"smiles": "CC1=CCC(O)(C(C)C)CC1", "note": "(centres unmarked) [terpinen-4-ol]", "values": [
      {"measurement": "Fura-2 calcium imaging, HEK293", "setting": "TmTRPA1a; 1 mM", "result": "These are nerol, 2-undecanone, carvacrol, geranylacetone, eugenol and terpinen-4-ol"}
    ]},
    {"smiles": "CC1=CCC(C(C)(C)O)CC1", "note": "(stereo not drawn) [α-terpineol]", "values": [
      {"measurement": "Fura-2 calcium imaging, HEK293", "setting": "TmTRPA1b; 1 mM, activator", "result": "We observed robust activation of TmTRPA1b by eight representative plant-derived compounds"}
    ]},
    {"smiles": "CC(C)=CCCC(C)CCO", "note": "(stereo not drawn) [β-citronellol]", "values": [
      {"measurement": "Fura-2 calcium imaging, HEK293", "setting": "TmTRPA1b; 1 mM, activator", "result": "We observed robust activation of TmTRPA1b by eight representative plant-derived compounds"}
    ]}
  ]
}
